From PMC8041276 (ACS Chemical Neuroscience, 2021)

Assays:
[1] = target: T1, serotonin 5-HT2C receptor (Homo sapiens, UniProt P28335); test: Eurofins Cerep off-target binding, % inhibition at 1 μM
T1 construct: Eurofins Cerep (contract assay)
T1 sequence (P28335 33-458): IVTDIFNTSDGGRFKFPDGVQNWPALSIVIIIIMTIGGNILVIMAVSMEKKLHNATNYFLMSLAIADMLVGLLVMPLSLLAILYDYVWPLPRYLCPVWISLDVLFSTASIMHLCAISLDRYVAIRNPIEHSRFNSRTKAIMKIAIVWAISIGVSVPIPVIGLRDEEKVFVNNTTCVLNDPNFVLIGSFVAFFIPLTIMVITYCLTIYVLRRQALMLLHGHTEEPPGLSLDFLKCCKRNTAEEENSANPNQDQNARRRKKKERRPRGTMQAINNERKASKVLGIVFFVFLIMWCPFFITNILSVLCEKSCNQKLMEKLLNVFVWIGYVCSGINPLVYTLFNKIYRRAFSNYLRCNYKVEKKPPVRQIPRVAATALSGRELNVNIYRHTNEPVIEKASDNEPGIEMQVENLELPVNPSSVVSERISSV
Protocol: (§1) Additionally, the affinity of compound 27 at the adrenergic α1A, muscarinic M1, histaminergic H1, dopaminergic D3, serotoninergic 5-HT2C, 5-HT3 receptors, serotonin transporter (SERT), and the human ether-a-go-go-related gene (hERG) channel were evaluated in Eurofins Cerep.

[2] = target: T2, hERG channel (Homo sapiens, UniProt Q12809); test: as above
T2 construct: Eurofins Cerep (contract assay)
T2 sequence (Q12809 whole entry): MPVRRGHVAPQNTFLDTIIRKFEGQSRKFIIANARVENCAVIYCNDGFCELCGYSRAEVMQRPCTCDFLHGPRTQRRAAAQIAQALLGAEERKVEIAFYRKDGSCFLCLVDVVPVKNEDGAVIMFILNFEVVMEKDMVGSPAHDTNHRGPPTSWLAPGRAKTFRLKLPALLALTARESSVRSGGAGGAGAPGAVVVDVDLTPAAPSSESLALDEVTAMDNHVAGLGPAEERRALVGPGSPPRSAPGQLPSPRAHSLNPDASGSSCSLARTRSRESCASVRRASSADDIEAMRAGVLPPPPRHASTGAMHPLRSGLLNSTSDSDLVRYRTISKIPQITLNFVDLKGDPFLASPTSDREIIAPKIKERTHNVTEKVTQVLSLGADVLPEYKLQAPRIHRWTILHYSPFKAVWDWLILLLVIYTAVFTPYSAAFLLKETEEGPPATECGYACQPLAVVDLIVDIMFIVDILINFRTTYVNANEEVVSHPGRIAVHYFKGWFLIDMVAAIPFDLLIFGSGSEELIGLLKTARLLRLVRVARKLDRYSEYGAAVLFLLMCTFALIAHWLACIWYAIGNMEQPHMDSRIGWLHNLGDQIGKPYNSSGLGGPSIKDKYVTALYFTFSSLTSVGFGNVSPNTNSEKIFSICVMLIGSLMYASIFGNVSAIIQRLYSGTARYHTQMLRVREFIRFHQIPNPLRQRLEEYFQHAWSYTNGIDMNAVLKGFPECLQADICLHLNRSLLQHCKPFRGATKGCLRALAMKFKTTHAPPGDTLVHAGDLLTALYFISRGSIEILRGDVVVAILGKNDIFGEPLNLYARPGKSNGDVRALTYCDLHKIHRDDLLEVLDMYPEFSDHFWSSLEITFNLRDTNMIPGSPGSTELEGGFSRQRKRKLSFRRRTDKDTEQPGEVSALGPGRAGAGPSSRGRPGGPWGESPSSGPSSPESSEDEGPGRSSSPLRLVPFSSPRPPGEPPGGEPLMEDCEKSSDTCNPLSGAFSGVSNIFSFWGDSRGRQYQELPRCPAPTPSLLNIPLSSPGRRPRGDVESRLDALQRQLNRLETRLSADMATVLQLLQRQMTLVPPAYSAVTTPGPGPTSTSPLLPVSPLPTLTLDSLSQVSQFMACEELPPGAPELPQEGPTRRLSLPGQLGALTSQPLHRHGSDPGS
Protocol: as §1

[3] = system: scopolamine-induced cognitive impairment; test: Novel object recognition (NOR) test under scopolamine-induced memory decline; format: in vivo, male Sprague-Dawley rats; conditions: rats, scopolamine 1.25 mg/kg ip
Protocol: The experiments were conducted in accordance with the NIH Guide for the Care and Use of Laboratory Animals and were approved by the II Local Ethics Committee for Animal Experiments, Maj Institute of Pharmacology. Male […] Sprague-Dawley rats (Charles River, Germany) weighing ∼250 g at the arrival were housed in the standard laboratory cages, under standard colony A/C controlled conditions: room temperature 21 ± 2 °C, humidity (40–50%), 12 h light/dark cycle (lights on, 06:00) with ad libitum access to food (unless stated otherwise) and water. Rats were allowed to acclimatize for at least 7 days before the start of the experimental procedure. During this week animals were handled at least 3 times. Behavioral testing was carried out during the light phase of the light/dark cycle. […]
The procedure consisted of habituation to the arena (without any objects) for 5 min, 24 h before the test, and test session comprised two trials separated by an inter trial interval (ITI). […] Exploration time of the objects and the distance traveled were measured using the Any-maze video tracking system. On the basis of exploration time (E) of two objects during T2, discrimination index (DI) was calculated according to the formula: DI = (EB – EA)/(EA + […]).
Data were analyzed using one-way ANOVA with treatment as between-subject factor. […]

[4] = system: cognitive flexibility; test: Attentional set-shifting task (ASST); format: in vivo, male Sprague-Dawley rats; conditions: rats
Protocol: The experiments were conducted in accordance with the NIH Guide for the Care and Use of Laboratory Animals and were approved by the II Local Ethics Committee for Animal Experiments, Maj Institute of Pharmacology. Male […] Sprague-Dawley rats (Charles River, Germany) weighing ∼250 g at the arrival were housed in the standard laboratory cages, under standard colony A/C controlled conditions: room temperature 21 ± 2 °C, humidity (40–50%), 12 h light/dark cycle (lights on, 06:00) with ad libitum access to food (unless stated otherwise) and water. Rats were allowed to acclimatize for at least 7 days before the start of the experimental procedure. During this week animals were handled at least 3 times. Behavioral testing was carried out during the light phase of the light/dark cycle. At least 1 h before the start of the experiment, rats were transferred to the experimental room for acclimation.
Thirty-two male Sprague-Dawley rats were group housed with a mild food restriction (17 g of food pellets per day) for at least 1 week prior to training.
Testing was conducted in a Plexiglas apparatus (length × width × height: 38 cm × 38 cm × 17 cm) with the grid floor and wall dividing half of the length of the cage into two sections. During testing, one ceramic digging pot (internal diameter of 10.5 cm and a depth of 4 cm) was placed in each section. Each pot was defined by a pair of cues along with two stimulus dimensions. To mark each pot with a distinct odor, 5 μL of a flavoring essence (Dr Oetker, Poland, or The Body Shop, U.K.) was applied to a piece of blotting paper fixed to the external rim of the pot immediately prior to use. A different pot was used for each combination of digging medium and odor; only one odor was ever applied to a given pot. The bait (one-half of a Honey Nut Cheerios, Nestle) was placed at the bottom of the “positive” pot and buried in the digging medium. A small amount of powdered Cheerios was added to the digging media to prevent the rat from trying to detect the buried reward by its smell. […]
Day 3, Testing. […] An incorrect choice was recorded as an error. […]

SMILES: O=C(N[C@@H]1CCNC1)c1ccn(S(=O)(=O)c2cccc(Cl)c2)c1-c1ccc(F)cc1 [Compound 27, (R)-2-(4-Fluorophenyl)-1-[(3-chlorophenyl)sulfonyl]-N-(pyrrolidin-3-yl)-1H-pyrrole-3-carboxamide]
- inhibition at 1 µM [1]: 10%
- inhibition at 1 µM [2]: 1%
- effect on scopolamine-induced cognitive deficits (discrimination index) ([3]; 3 mg/kg p.o.): not 3 mg/kg, prevented scopolamine-induced cognitive deficits
- effect on scopolamine-induced cognitive deficits (discrimination index) ([3]; 6 mg/kg p.o.): prevented scopolamine-induced cognitive deficits
- cognitive flexibility (trials to criterion) ([4]; 6 mg/kg p.o.): effective only during the Rev2 phase
- cognitive flexibility (trials to criterion) ([4]; 9 mg/kg p.o., ED, Rev1, Rev2, Rev3 stages): enhanced cognitive flexibility
- mean time to complete the trial ([4]; 6 and 9 mg/kg p.o., all discrimination stages): did not affect the mean time to complete the trial
